These results are taken from patent publication US7538252B2, “Drug design for tubulin inhibitors, compositions, and methods of treatment thereof” (BiPar Sciences, Inc., priority 2006, dated 2009).

The test system of assay [1] is TNF-alpha mRNA. The assay is described as follows: TNF-alpha mRNA level in LPS-stimulated PU5-1.8 macrophages (Northern blot). The class given is cell-based, murine. As to the method:
This example provides an assay that can be used to screen compounds of Formula I for their ability to reduce the expression of cytokines (e.g., TNF-alpha) in a mammal.
The murine macrophage PU5-1.8 cell line is purchased from the American Type Culture Collection (ATCC, Rockville, Md.). Cells are grown in DMEM medium supplemented with […] sodium pyruvate, 0.1 mM nonessential amino acids, 2 mM glutamine and 5% fetal bovine serum (Life Technologies, Staten Island, N.Y.). Cells are maintained in a humidified atmosphere of 5% CO2-95% air at 37° C. Cells are passaged twice weekly by firmly tapping the side of the flask to dislodge the adherent cells. Both non-adherent and adherent cells are passaged. Exponentially growing cells are seeded at 5×10^5/mL, 4 mL per 60-mm dish 24 h prior to the experiment. Test compounds are delivered in 1 mL volumes of the medium added to each dish at the start of the experiment. All dishes are incubated at 37° C. in 5% CO2-95% air for 3 h.
The Tumor Necrosis Factor (TNF-alpha) cDNA is obtained from the ATCC (Rockville, Md.). […]
Hybridized bands are quantified by analyzing the images obtained by using a video densitometer (Applied Imaging Corporation, Santa Clara, Calif.). […]
Treatment of PU5-1.8 murine macrophages with LPS (100 ng/mL) for 3 h results in a significant increase (>7 fold) in the level of TNF-alpha mRNA as determined by Northern blot analysis. […]

In assay [2] the test system is HCT116 and Hela cells. Kind of assay: Cell cycle analysis by flow cytometry. Format: cell-based. Particulars: FIG. 6, compared to control DIPE. As for the experimental part:
HCT116 and Hela cells were obtained from ATCC. For DNA content analysis, 2×10^5 cells were washed twice with PBS and fixed in 70% ethanol. Cells were treated with 100 units/mL RNase A for 20 minutes at 37° C., resuspended in cold PBS containing Alexa Fluor® 405 fluorescent stain (Invitrogen) according to the manufacturer's protocol. Cells were analyzed by flow cytometry.
For DNA replication analysis, 2×10^5 cells were incubated with 50 μmol/L bromodeoxyuridine (BrdUrd) for 30 minutes. Cells were fixed in 70% ethanol and BrdUrd incorporation was determined by flow cytometric analysis using an anti-BrdUrd-FITC antibody (Becton Dickinson, Franklin Lakes, N.J.) according to the manufacturer's protocol. To assess the degree of G2/M checkpoint, mitotic cells were detected by flow cytometry using the mitosis-specific antibody GF-7. Fixed cells were incubated for 30 minutes with GF7-phycoerythrin (PE) antibody (BD Biosciences Pharmingen), washed with PBS and analyzed by flow cytometry. FIG. 6 compares the results obtained with DIPE and formula IIIB.
On the technique in general: In flow cytometry, cells or beads pass a laser one at a time.

Assay [3] relates to HeLa cells. Kind of assay: TUNEL apoptosis assay with flow cytometry. The class given is cell-based. Particulars: FIG. 7, compared to control DIPE. The source says: Programmed cell death (apoptosis) is an important homeostatic mechanism in the immune and other systems. The phenomenon of nuclear disintegration during apoptosis can be used as a marker to detect cells undergoing this process. While a variety of methods are available to detect apoptotic cells the TUNEL assay allows the rapid phenotypic identification of individual apoptotic cells using flow cytometry (FACS). Terminal transferase dUTP nick end labeling (TUNEL) is a common method for detecting DNA fragmentation that results from apoptosis. The assay based on the presence of nicks in the DNA that can be identified by terminal transferase, an enzyme that will catalyze the addition of dUTPs that are secondarily labeled with a marker. It may also label cells undergoing necrosis or cells that have suffered severe DNA damage.
Hela cells were obtained from ATCC. For DNA content analysis, 2×10^5 cells were washed twice with PBS and fixed in 70% ethanol. Cells were treated with 100 units/mL RNase A for 20 minutes at 37° C., resuspended in cold PBS containing Alexa Fluor® 405 fluorescent stain (Invitrogen) according to the manufacturer's protocol. Cells were analyzed by flow cytometry to characterize the cell cycle. […]

Consider `COc1cc2c(c(OC)c1OC)-c1ccc(OC)c(=O)cc1[C@@H](NC(C)=O)CC2` [colchicine], for which, in assay [1] (10 μM added to LPS (100 ng/mL) treated cultures, 3 h), the “inhibition of TNF-alpha mRNA accumulation” value was 68%. Also, in assay [1] (10 μM, cells without LPS), the “effect on TNF-alpha mRNA expression” value was “no effect”.
Take `COc1ccc(Oc2c(I)cc(C(C)=O)cc2I)cc1N` [Formula IIIB, 1-(4-(3-amino-4-methoxyphenoxy)-3,5-diiodophenyl)ethanone]: the cell-cycle arrest entry in assay [2] was “cell-cycle arrest”. Also, in assay [3], the induction of apoptosis result is reported as “induction of apoptosis”.
